Measured values published in US20200147243A1, “LIGAND COMPOUND OF ALPHA7 NICOTINIC ACETYLCHOLINE RECEPTOR AND APPLICATION THEREOF” (BEIJING NORMAL UNIVERSITY, priority 2017, published 2020).
Where “and” joins values, the source holds several entries; their conditions need not be identical. Identical values can stand only once.

Experiment: Experiment of brain region distribution
Conditions: for Absorption, brain residual / Absorption, cerebellum / Absorption, corpus striatum / Absorption, cortex / Absorption, hippocampus / Absorption, superior and inferior colliculus / Absorption, thalamus: tail vein, female Kunming mice; for Tissue/cerebellum Ratio, corpus striatum / Tissue/cerebellum Ratio, cortex / Tissue/cerebellum Ratio, hippocampus / Tissue/cerebellum Ratio, superior and inferior colliculus / Tissue/cerebellum Ratio, thalamus: mouse brain

O=C1c2cc(N3CCN4CCC3CC4)ccc2-c2cccc([18F])c21 [[^18F] II-15]
Absorption, brain residual (5 min): 6.03 ± 0.23 % ID/g wet weight | Absorption, brain residual (15 min): 5.58 ± 0.50 % ID/g wet weight | Absorption, brain residual (30 min): 5.25 ± 0.80 % ID/g wet weight | Absorption, brain residual (60 min): 4.21 ± 0.22 % ID/g wet weight | Absorption, brain residual (90 min): 2.32 ± 0.26 % ID/g wet weight | Absorption, cerebellum (5 min): 5.83 ± 0.01 % ID/g wet weight | Absorption, cerebellum (15 min): 5.10 ± 0.35 % ID/g wet weight | Absorption, cerebellum (30 min): 4.53 ± 0.14 % ID/g wet weight | Absorption, cerebellum (60 min): 2.69 ± 0.10 % ID/g wet weight | Absorption, cerebellum (90 min): 1.53 ± 0.10 % ID/g wet weight | Tissue/cerebellum Ratio, corpus striatum (5 min): 1.20 | Absorption, corpus striatum (5 min): 6.99 ± 0.31 % ID/g wet weight | Tissue/cerebellum Ratio, corpus striatum (15 min): 1.28 | Absorption, corpus striatum (15 min): 6.55 ± 0.25 % ID/g wet weight | Tissue/cerebellum Ratio, corpus striatum (30 min): 1.85 | Absorption, corpus striatum (30 min): 8.37±0.27 % ID/g wet weight | Tissue/cerebellum Ratio, corpus striatum (60 min): 1.87 | Absorption, corpus striatum (60 min): 5.01 ± 0.31 % ID/g wet weight | Tissue/cerebellum Ratio, corpus striatum (90 min): 2.9 and 2.86 | Absorption, corpus striatum (90 min): 4.37 ± 0.18 % ID/g wet weight | Tissue/cerebellum Ratio, cortex (5 min): 1.24 | Absorption, cortex (5 min): 7.24 ± 0.33 % ID/g wet weight | Tissue/cerebellum Ratio, cortex (15 min): 1.63 | Absorption, cortex (15 min): 8.31 ± 0.22 % ID/g wet weight | Tissue/cerebellum Ratio, cortex (30 min): 2.07 | Absorption, cortex (30 min): 9.39±0.24 % ID/g wet weight | Tissue/cerebellum Ratio, cortex (60 min): 2.29 | Absorption, cortex (60 min): 6.14 ± 0.34 % ID/g wet weight | Tissue/cerebellum Ratio, cortex (90 min): 2.5 and 2.47 | Absorption, cortex (90 min): 3.77 ± 0.95 % ID/g wet weight | Tissue/cerebellum Ratio, hippocampus (5 min): 0.99 | Absorption, hippocampus (5 min): 5.77 ± 0.17 % ID/g wet weight | Tissue/cerebellum Ratio, hippocampus (15 min): 1.20 | Absorption, hippocampus (15 min): 6.12 ± 0.40 % ID/g wet weight | Tissue/cerebellum Ratio, hippocampus (30 min): 1.39 | Absorption, hippocampus (30 min): 6.31±0.82 % ID/g wet weight | Tissue/cerebellum Ratio, hippocampus (60 min): 2.36 | Absorption, hippocampus (60 min): 6.34 ± 0.72 % ID/g wet weight | Tissue/cerebellum Ratio, hippocampus (90 min): 3.6 and 3.63 | Absorption, hippocampus (90 min): 5.54 ± 0.64 % ID/g wet weight | Tissue/cerebellum Ratio, superior and inferior colliculus (5 min): 1.08 | Absorption, superior and inferior colliculus (5 min): 6.32 ± 0.67 % ID/g wet weight | Tissue/cerebellum Ratio, superior and inferior colliculus (15 min): 1.28 | Absorption, superior and inferior colliculus (15 min): 6.53 ± 0.58 % ID/g wet weight | Tissue/cerebellum Ratio, superior and inferior colliculus (30 min): 1.31 | Absorption, superior and inferior colliculus (30 min): 5.93 ± 0.52 % ID/g wet weight | Tissue/cerebellum Ratio, superior and inferior colliculus (60 min): 1.45 | Absorption, superior and inferior colliculus (60 min): 3.90 ± 0.36 % ID/g wet weight | Tissue/cerebellum Ratio, superior and inferior colliculus (90 min): 1.86 | Absorption, superior and inferior colliculus (90 min): 2.85 ± 0.10 % ID/g wet weight | Tissue/cerebellum Ratio, thalamus (5 min): 0.98 | Absorption, thalamus (5 min): 5.74 ± 0.69 % ID/g wet weight | Tissue/cerebellum Ratio, thalamus (15 min): 1.11 | Absorption, thalamus (15 min): 5.66 ± 0.34 % ID/g wet weight | Tissue/cerebellum Ratio, thalamus (30 min): 1.28 | Absorption, thalamus (30 min): 5.80 ± 0.47 % ID/g wet weight | Tissue/cerebellum Ratio, thalamus (60 min): 1.82 | Absorption, thalamus (60 min): 4.89 ± 0.04 % ID/g wet weight | Tissue/cerebellum Ratio, thalamus (90 min): 2.10 | Absorption, thalamus (90 min): 3.19 ± 0.26 % ID/g wet weight
